Reference: the supplement of paper PMC10883282
± gives the standard deviation of the averaged measurements.

What was measured:
Assay in all cases: relative viability vs DMSO control (72 h) (fraction); higher = more viable cells
[1] = system: A204
Outline: (§1)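 Densities for seeding sarcoma cell lines into 384-well plates were set to give 80–90% confluence. After 24 h, 2.5 µl of serially diluted compound from source plates of 10 mM to 0.0002 mM went in, and plates stayed 72 h at 37 °C in 5% CO2 with 0.1% DMSO vehicle and a 5 µM positive control. Percent growth from ATPLite readings, averaged over up to triplicate wells, served as relative viability, rescaled so 1 means full and 0 means none.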

[2] = system: G401
Outline: as §1

[3] = system: HS729
Outline: as §1

[4] = system: KHOS-240S
Outline: as §1

[5] = system: MES-SA
Outline: as §1

[6] = system: RD
Outline: as §1

[7] = system: SK-ES-1
Outline: as §1

[8] = system: SK-LMS-1
Outline: as §1

[9] = system: SW1353
Outline: as §1

[10] = system: SW872
Outline: as §1

[11] = system: SW982
Outline: as §1

[12] = system: VA-ES-BJ
Outline: as §1

CCN1CCN(c2ccc(Nc3cc(N(C)C(=O)Nc4c(Cl)c(OC)cc(OC)c4Cl)ncn3)cc2)CC1 [Infigratinib]
Conditions	relative viability
[1], 85 pM	1.08 ± 0.035
[1], 0.000254 µM	1.08 ± 0.024
[1], 0.00076 µM	1.08 ± 0.049
[1], 0.00229 µM	1.05 ± 0.045
[1], 0.00686 µM	0.964 ± 0.035
[1], 0.02058 µM	0.825 ± 0.017
[1], 0.0617 µM	0.676 ± 0.029
[1], 0.1852 µM	0.569 ± 0.038
[1], 0.5556 µM	0.559 ± 0.02
[1], 1.6667 µM	0.527 ± 0.011
[1], 5 µM	0.408 ± 0.0067
[2], 85 pM	1.048 ± 0.0058
[2], 0.000254 µM	1.039 ± 0.0064
[2], 0.00076 µM	1.02 ± 0.031
[2], 0.00229 µM	0.9703 ± 0.0075
[2], 0.00686 µM	0.952 ± 0.012
[2], 0.02058 µM	0.8266 ± 0.0059
[2], 0.0617 µM	0.749 ± 0.051
[2], 0.1852 µM	0.649 ± 0.025
[2], 0.5556 µM	0.59 ± 0.025
[2], 1.6667 µM	0.515 ± 0.034
[2], 5 µM	0.33 ± 0.034
[3], 85 pM	1.01 ± 0.062
[3], 0.000254 µM	0.934 ± 0.042
[3], 0.00076 µM	0.942 ± 0.035
[3], 0.00229 µM	0.913 ± 0.075
[3], 0.00686 µM	0.866 ± 0.075
[3], 0.02058 µM	0.788 ± 0.012
[3], 0.0617 µM	0.69 ± 0.039
[3], 0.1852 µM	0.635 ± 0.011
[3], 0.5556 µM	0.604 ± 0.019
[3], 1.6667 µM	0.526 ± 0.0065
[3], 5 µM	0.525 ± 0.018
[4], 85 pM	1.058 ± 0.0077
[4], 0.000254 µM	1.11 ± 0.034
[4], 0.00076 µM	1.08 ± 0.031
[4], 0.00229 µM	1.06 ± 0.027
[4], 0.00686 µM	1.06 ± 0.025
[4], 0.02058 µM	0.986 ± 0.017
[4], 0.0617 µM	0.926 ± 0.036
[4], 0.1852 µM	0.932 ± 0.068
[4], 0.5556 µM	0.907 ± 0.043
[4], 1.6667 µM	0.874 ± 0.066
[4], 5 µM	0.835 ± 0.015
[5], 85 pM	0.933 ± 0.027
[5], 0.000254 µM	0.94 ± 0.022
[5], 0.00076 µM	0.927 ± 0.024
[5], 0.00229 µM	0.928 ± 0.0093
[5], 0.00686 µM	0.929 ± 0.029
[5], 0.02058 µM	0.869 ± 0.025
[5], 0.0617 µM	0.846 ± 0.025
[5], 0.1852 µM	0.733 ± 0.033
[5], 0.5556 µM	0.696 ± 0.025
[5], 1.6667 µM	0.556 ± 0.0096
[5], 5 µM	0.412 ± 0.012
[6], 85 pM	1.07 ± 0.038
[6], 0.000254 µM	1.06 ± 0.028
[6], 0.00076 µM	1.11 ± 0.014
[6], 0.00229 µM	1.13 ± 0.027
[6], 0.00686 µM	1.14 ± 0.048
[6], 0.02058 µM	1.12 ± 0.068
[6], 0.0617 µM	1.12 ± 0.084
[6], 0.1852 µM	1.14 ± 0.12
[6], 0.5556 µM	1.12 ± 0.071
[6], 1.6667 µM	1.13 ± 0.072
[6], 5 µM	1.11 ± 0.1
[7], 85 pM	1.03 ± 0.039
[7], 0.000254 µM	1.07 ± 0.04
[7], 0.00076 µM	1 ± 0.03
[7], 0.00229 µM	1.06 ± 0.019
[7], 0.00686 µM	1.03 ± 0.04
[7], 0.02058 µM	1.01 ± 0.027
[7], 0.0617 µM	0.971 ± 0.036
[7], 0.1852 µM	0.929 ± 0.06
[7], 0.5556 µM	0.797 ± 0.0085
[7], 1.6667 µM	0.559 ± 0.0091
[7], 5 µM	0.373 ± 0.0076
[8], 85 pM	1.12 ± 0.035
[8], 0.000254 µM	1.11 ± 0.06
[8], 0.00076 µM	1.08 ± 0.064
[8], 0.00229 µM	1.13 ± 0.065
[8], 0.00686 µM	1.1 ± 0.063
[8], 0.02058 µM	1.06 ± 0.074
[8], 0.0617 µM	1.08 ± 0.056
[8], 0.1852 µM	1.11 ± 0.11
[8], 0.5556 µM	1.08 ± 0.089
[8], 1.6667 µM	1.04 ± 0.061
[8], 5 µM	0.952 ± 0.033
[9], 85 pM	1.06 ± 0.023
[9], 0.000254 µM	1.069 ± 0.0048
[9], 0.00076 µM	1.04 ± 0.024
[9], 0.00229 µM	1.01 ± 0.023
[9], 0.00686 µM	0.98 ± 0.017
[9], 0.02058 µM	0.914 ± 0.029
[9], 0.0617 µM	0.861 ± 0.018
[9], 0.1852 µM	0.861 ± 0.013
[9], 0.5556 µM	0.861 ± 0.053
[9], 1.6667 µM	0.8437 ± 0.0034
[9], 5 µM	0.741 ± 0.04
[10], 85 pM	1.09 ± 0.046
[10], 0.000254 µM	1.097 ± 0.01
[10], 0.00076 µM	1.09 ± 0.028
[10], 0.00229 µM	1.06 ± 0.042
[10], 0.00686 µM	1.03 ± 0.07
[10], 0.02058 µM	1.03 ± 0.019
[10], 0.0617 µM	1.06 ± 0.052
[10], 0.1852 µM	1.04 ± 0.058
[10], 0.5556 µM	1.01 ± 0.043
[10], 1.6667 µM	0.882 ± 0.084
[10], 5 µM	0.839 ± 0.023
[11], 85 pM	1.01 ± 0.057
[11], 0.000254 µM	1.07 ± 0.032
[11], 0.00076 µM	1.02 ± 0.024
[11], 0.00229 µM	1.05 ± 0.021
[11], 0.00686 µM	1.05 ± 0.048
[11], 0.02058 µM	1.05 ± 0.026
[11], 0.0617 µM	1.07 ± 0.042
[11], 0.1852 µM	1.061 ± 0.008
[11], 0.5556 µM	0.98 ± 0.027
[11], 1.6667 µM	0.78 ± 0.041
[11], 5 µM	0.732 ± 0.0075
[12], 85 pM	1.03 ± 0.012
[12], 0.000254 µM	1.048 ± 0.01
[12], 0.00076 µM	1.03 ± 0.023
[12], 0.00229 µM	1.04 ± 0.058
[12], 0.00686 µM	1.04 ± 0.01
[12], 0.02058 µM	0.977 ± 0.036
[12], 0.0617 µM	1.01 ± 0.022
[12], 0.1852 µM	0.982 ± 0.036
[12], 0.5556 µM	0.949 ± 0.006
[12], 1.6667 µM	0.8949 ± 0.0058
[12], 5 µM	0.871 ± 0.018
